# Source: publication PMC5055185, “Dual pharmacological inhibition of glutathione and thioredoxin systems synergizes to kill colorectal carcinoma stem cells” (Cancer Medicine, 2016)
# pIC50: −log10 of the molar value. “And” between values parts separate entries of the source, which are not always exact repeats. Identical values can stand only once.
# Assays:
# Assay type in all cases: cell-based, human
# [1] = system: TIG‐119 dermal fibroblasts; assay: cell survival (trypan blue exclusion, 5 days), TIG-119; conditions: for pIC50: TIG119, cellular survival, 5 days
# Procedure: (§1) Modified procedures of CTOS culture 16 were described elsewhere 10. […] The culture medium was serum‐free advanced DMEM/F‐12 (GIBCO, Waltham, MA) supplemented with FGF‐2 (10 ng/mL, ReproCell, Yokohama, Japan), penicillin ([…], Wako, Osaka, Japan), streptomycin (0.1 mg/mL,Wako), gentamicin (50 μg/mL, Wako), and fungizone (0.25 μg/mL, GIBCO). DLD‐1 and HCT116 CRC cell lines were purchased from JCRB Cell Bank (Osaka, Japan) and RIKEN BioResource Center (Ibaraki, Japan), respectively. In order to estimate pharmacological side effects against normal tissues, human diploid fibroblasts were purchased (JCRB Cell Bank) as model cells. The origins of the fibroblasts were as follows: OUMS‐36 (embryo), TIG‐3 (fetal lung), TIG‐111 (dermal fibroblasts [DFs] from individual), TIG‐119 (DFs from individual), and TIG‐102 (DFs from individual). Adult DFs were purchased from Kurabo (Osaka, Japan). CRC cell lines and fibroblasts were maintained under supplier‐recommended culture conditions. Since the culture conditions are different between fibroblasts and CTOSs, we need to be cautious about the interpretation of data (i.e., lateral comparison between them). […] Colorectal CTOSs display augmented survival through maintaining epithelial structure with E‐cadherin 16. On the other hand, the establishment of conventional cell lines (adherent culture) are much less efficient because constant cell division and autonomous survival are required for the procedure. When we choose CTOSs instead of cancer cell lines, we lose the equivalent condition (adherent culture) as a trade‐off.
# (§2) Each drug's half‐maximal inhibitory concentration (IC50) was calculated based on live cell number ratios (drug treated/untreated × 100%) obtained from serial dilution of drug concentration. The length of drug exposure was 5 days. Each number of live cells was counted automatically by trypan blue exclusion (LUNA automated cell counter, Logos Biosystems, Anyang, South Korea). Cancer spheroids were dispersed with serial treatments (20 min each) of TrypLE™ and Accumax™. Thus, IC50 was determined based on cellular survival, but not on proliferation. We chose the survival index instead of the speed of growth because CTOSs in vitro show very slow proliferation (quiescence), which is one of the hallmarks of CSCs 2. The IC50 values of fibroblasts were accordingly determined based on cellular survival index during quiescence (by contact inhibition). […] To quantify the synergism of two distinct drugs, Combination Index (CI) was calculated 21. A CI value of about 1 (0.90–1.10) was defined as nearly additive and CI values more than (>1.10) and less than (<0.90) were defined as antagonism and synergism, respectively. IC50 and CI were determined using CompuSyn software (ComboSyn, Paramus, NK).
# [2] = system: DF adult dermal fibroblasts; assay: cell survival (trypan blue exclusion, 5 days), DF; conditions: for pIC50: cellular survival, 5 days
# Procedure: as §1, §2
# [3] = system: TIG‐102 dermal fibroblasts; assay: cell survival (trypan blue exclusion, 5 days), TIG-102; conditions: for pIC50: TIG102, cellular survival, 5 days; for Ratio of survived cells (Drugs treated/Untreated), Average / Ratio of survived cells (Drugs treated/Untreated), single passage points #: TIG-102
# Procedure: as §1, §2
# [4] = system: CTOS71 colorectal cancer tissue‐originated spheroids; assay: cell survival (trypan blue exclusion, 5 days), CTOS71; conditions: for pIC50: CTOS71, cellular survival, 5 days; for Ratio of survived cells (Drugs treated/Untreated), Average / Ratio of survived cells (Drugs treated/Untreated), single passage points #: CTOS#71
# Description: (§3) All experimental procedures were approved by the animal facility at Dokkyo Medical University (ID: 951) and were described elsewhere 10. The existence of CSCs has been experimentally proven through serial xenotransplantation and tumorigenesis 2, 14. […] These subcutaneous tumors were again subjected to enzymatic dissociation and some of the tumor cells were subcutaneously transplanted into other mice. […] Seven cases (CTOS:40, 42, 68, 71, 76, 86, 88) were used for in vitro experiments.
# as §1
# (§4) Each drug's half‐maximal inhibitory concentration (IC50) was calculated based on live cell number ratios (drug treated/untreated × 100%) obtained from serial dilution of drug concentration. The length of drug exposure was 5 days. Each number of live cells was counted automatically by trypan blue exclusion (LUNA automated cell counter, Logos Biosystems, Anyang, South Korea). Cancer spheroids were dispersed with serial treatments (20 min each) of TrypLE™ and Accumax™. Thus, IC50 was determined based on cellular survival, but not on proliferation.
# [5] = system: CTOS76 colorectal cancer tissue‐originated spheroids; assay: cell survival (trypan blue exclusion, 5 days), CTOS76; conditions: for pIC50: CTOS76, cellular survival, 5 days
# Description: as §3, §1, §4
compound,measurement,setting,value
"CC[PH](CC)(CC)[Au][S][C@@H]1O[C@H](COC(C)=O)[C@@H](OC(C)=O)[C@H](OC(C)=O)[C@H]1OC(C)=O [Aura, Auranofin]",pIC50,[1],5.93
same,"Ratio of survived cells (Drugs treated/Untreated), Average","[1]; TIG-119, Aura 1 microM",53.3333%
same,"Ratio of survived cells (Drugs treated/Untreated), Average","[1]; TIG-119, Aura 2 microM",31.6667%
same,"Ratio of survived cells (Drugs treated/Untreated), Average","[1]; TIG-119, Aura 4 microM",5%
same,"Ratio of survived cells (Drugs treated/Untreated), Average",[2]; Aura 1 microM,88.25%
same,"Ratio of survived cells (Drugs treated/Untreated), Average",[2]; Aura 2 microM,33%
same,"Ratio of survived cells (Drugs treated/Untreated), single passage points #",[2]; Aura 2 microM,38% and 32% and 36% and 26%
same,"Ratio of survived cells (Drugs treated/Untreated), Average",[2]; Aura 4 microM,0%
same,"Ratio of survived cells (Drugs treated/Untreated), single passage points #",[2]; Aura 4 microM,0%
same,pIC50,[2],5.80
same,pIC50,[3],5.96
same,"Ratio of survived cells (Drugs treated/Untreated), Average",[3]; Aura 1 microM,48.5%
same,"Ratio of survived cells (Drugs treated/Untreated), single passage points #",[3]; Aura 1 microM,44% and 53%
same,"Ratio of survived cells (Drugs treated/Untreated), Average",[3]; Aura 2 microM,21%
same,"Ratio of survived cells (Drugs treated/Untreated), Average",[3]; Aura 4 microM,0%
same,"Ratio of survived cells (Drugs treated/Untreated), single passage points #",[3]; Aura 4 microM,0%
same,pIC50,[4],5.66
same,"Ratio of survived cells (Drugs treated/Untreated), Average",[4]; Aura 1 microM,70.2%
same,"Ratio of survived cells (Drugs treated/Untreated), single passage points #",[4]; Aura 1 microM,81% and 77% and 62% and 56% and 75%
same,"Ratio of survived cells (Drugs treated/Untreated), Average",[4]; Aura 2 microM,55.3333%
same,"Ratio of survived cells (Drugs treated/Untreated), Average",[4]; Aura 4 microM,33.1429%
same,pIC50,[5],5.55
same,"Ratio of survived cells (Drugs treated/Untreated), Average","[5]; CTOS#76, Aura 1 microM",68.4%
same,"Ratio of survived cells (Drugs treated/Untreated), Average","[5]; CTOS#76, Aura 2 microM",56.4%
same,"Ratio of survived cells (Drugs treated/Untreated), Average","[5]; CTOS#76, Aura 4 microM",39.5%
same,"Ratio of survived cells (Drugs treated/Untreated), single passage points #","[5]; CTOS#76, Aura 4 microM",36% and 56% and 30%
"COc1cc(/C=C/C(=O)N2CCC=CC2=O)cc(OC)c1OC [Pipe, Piperlongumine]",pIC50,[1],5.13
same,"Ratio of survived cells (Drugs treated/Untreated), Average","[1]; TIG-119, Pipe 2.5 microM",95.75%
same,"Ratio of survived cells (Drugs treated/Untreated), single passage points #","[1]; TIG-119, Pipe 2.5 microM",83% and 121% and 96%
same,"Ratio of survived cells (Drugs treated/Untreated), Average","[1]; TIG-119, Pipe 5 microM",80.75%
same,"Ratio of survived cells (Drugs treated/Untreated), Average","[1]; TIG-119, Pipe 10 microM",27%
same,"Ratio of survived cells (Drugs treated/Untreated), Average",[2]; Pipe 2.5 microM,94.8333%
same,"Ratio of survived cells (Drugs treated/Untreated), Average",[2]; Pipe 5 microM,80.3333%
same,"Ratio of survived cells (Drugs treated/Untreated), single passage points #",[2]; Pipe 5 microM,81% and 80% and 83% and 109% and 67% and 62%
same,"Ratio of survived cells (Drugs treated/Untreated), Average",[2]; Pipe 10 microM,12.5%
same,pIC50,[2],5.20
same,pIC50,[3],5.10
same,"Ratio of survived cells (Drugs treated/Untreated), Average",[3]; Pipe 2.5 microM,105.667%
same,"Ratio of survived cells (Drugs treated/Untreated), single passage points #",[3]; Pipe 2.5 microM,83% and 86% and 148%
same,"Ratio of survived cells (Drugs treated/Untreated), Average",[3]; Pipe 5 microM,86.3333%
same,"Ratio of survived cells (Drugs treated/Untreated), single passage points #",[3]; Pipe 5 microM,54% and 100% and 105%
same,"Ratio of survived cells (Drugs treated/Untreated), Average",[3]; Pipe 10 microM,27.6667%
same,pIC50,[4],5.22
same,"Ratio of survived cells (Drugs treated/Untreated), Average",[4]; Pipe 2.5 microM,80.8%
same,"Ratio of survived cells (Drugs treated/Untreated), single passage points #",[4]; Pipe 2.5 microM,96% and 59% and 102% and 88%
same,"Ratio of survived cells (Drugs treated/Untreated), Average",[4]; Pipe 5 microM,60.8%
same,"Ratio of survived cells (Drugs treated/Untreated), Average",[4]; Pipe 10 microM,27.8%
same,"Ratio of survived cells (Drugs treated/Untreated), single passage points #",[4]; Pipe 10 microM,21% and 20% and 35% and 27% and 36%
same,pIC50,[5],5.15
same,"Ratio of survived cells (Drugs treated/Untreated), Average","[5]; CTOS#76, Pipe 2.5 microM",81.75%
same,"Ratio of survived cells (Drugs treated/Untreated), Average","[5]; CTOS#76, Pipe 5 microM",73%
same,"Ratio of survived cells (Drugs treated/Untreated), Average","[5]; CTOS#76, Pipe 10 microM",32.3333%
